Results on 16 molecules are retold here after ChEMBL document CHEMBL4428133, “Tyrosyl-DNA phosphodiesterase inhibitors: Progress and potential” (Bioorg Med Chem, 2016).

For experiment [1], the target named is T1, Tyrosyl-DNA phosphodiesterase 2 (Homo sapiens, UniProt O95551).
T1 sequence (O95551 whole entry): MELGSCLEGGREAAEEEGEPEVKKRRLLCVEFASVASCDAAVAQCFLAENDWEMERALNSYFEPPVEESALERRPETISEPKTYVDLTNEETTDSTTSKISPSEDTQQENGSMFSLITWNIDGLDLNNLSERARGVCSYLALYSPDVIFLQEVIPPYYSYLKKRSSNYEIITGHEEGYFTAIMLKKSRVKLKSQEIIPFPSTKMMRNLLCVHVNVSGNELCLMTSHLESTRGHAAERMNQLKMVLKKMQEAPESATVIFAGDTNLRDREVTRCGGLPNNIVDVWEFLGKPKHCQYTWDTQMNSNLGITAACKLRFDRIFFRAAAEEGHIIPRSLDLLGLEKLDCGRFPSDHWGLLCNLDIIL
The experiment in a line: Inhibition of TDP2 (unknown origin).

Experiment [2] deals with T2, Tyrosyl-DNA phosphodiesterase 1 (Homo sapiens, UniProt Q9NUW8). The experiment is described as follows: Inhibition of recombinant TDP1 (unknown origin) using 5'-32P-labeled N14Y DNA substrate incubated for 15 mins by PAGE analysis.
T2 sequence (Q9NUW8 whole entry): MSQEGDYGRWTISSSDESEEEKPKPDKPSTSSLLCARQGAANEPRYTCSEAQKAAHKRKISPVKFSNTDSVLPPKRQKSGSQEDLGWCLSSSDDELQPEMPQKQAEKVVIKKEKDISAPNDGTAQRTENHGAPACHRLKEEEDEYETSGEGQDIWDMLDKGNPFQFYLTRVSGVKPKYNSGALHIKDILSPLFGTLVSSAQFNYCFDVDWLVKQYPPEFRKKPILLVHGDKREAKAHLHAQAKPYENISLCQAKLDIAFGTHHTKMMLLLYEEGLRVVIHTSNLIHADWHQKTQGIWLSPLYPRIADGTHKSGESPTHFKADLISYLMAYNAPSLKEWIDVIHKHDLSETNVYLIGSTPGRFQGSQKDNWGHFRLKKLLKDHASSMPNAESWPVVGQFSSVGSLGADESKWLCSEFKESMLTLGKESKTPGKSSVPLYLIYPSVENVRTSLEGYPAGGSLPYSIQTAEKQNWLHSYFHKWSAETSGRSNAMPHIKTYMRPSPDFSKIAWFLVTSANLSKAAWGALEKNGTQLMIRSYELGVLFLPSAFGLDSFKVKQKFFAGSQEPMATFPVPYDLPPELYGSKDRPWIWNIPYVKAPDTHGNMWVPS
Experiment [3] addresses T1, Tyrosyl-DNA phosphodiesterase 2. The experiment in a line: Inhibition of human recombinant TDP2 using 18-mer single stranded 5'-32P-labeled cordycepin DNA substrate incubated for 15 mins by PAGE analysis.
Experiment [4] has as its target T2, Tyrosyl-DNA phosphodiesterase 1. The experiment is described as follows: Inhibition of human N-terminal His-tagged TDP1 expressed in Escherichia coli BL21 using [32P]-D14Y duplex DNA as substrate incubated for 20 mins by PAGE analysis.
Experiment [5] can be described thus: Non-competitive inhibition of human 7721 cell membrane-derived phospholipase D using phosphatidylcholine as substrate preincubated for 10 mins followed by substrate addition in presence of PIP2 by Cornish-Bowden plot analysis.
The target in experiment [6] is T2, Tyrosyl-DNA phosphodiesterase 1. The experiment is described as follows: Inhibition of N-terminal His-tagged TDP1 (unknown origin) expressed in Escherichia coli BL21(DE3) using 5'-6-FAM-AGGATCTAAAAGACTT-3BHQ-3' as substrate preincubated for 30 mins followed by substrate addition by fluorescence assay.
The next experiment relates to MCF7. The experiment is described as follows: Growth inhibition of human MCF7 cells at 10 uM after 96 hrs in presence of camptothecin by MTT assay relative to camptothecin alone. In kind it is functional. Conditions: MCF7, 96 h, read-out: GI. (Formazan colour is commonly taken as a measure of viable cells.)
The target in another experiment is T3, DNA topoisomerase 1 (Homo sapiens, UniProt P11387).
T3 sequence (P11387 whole entry): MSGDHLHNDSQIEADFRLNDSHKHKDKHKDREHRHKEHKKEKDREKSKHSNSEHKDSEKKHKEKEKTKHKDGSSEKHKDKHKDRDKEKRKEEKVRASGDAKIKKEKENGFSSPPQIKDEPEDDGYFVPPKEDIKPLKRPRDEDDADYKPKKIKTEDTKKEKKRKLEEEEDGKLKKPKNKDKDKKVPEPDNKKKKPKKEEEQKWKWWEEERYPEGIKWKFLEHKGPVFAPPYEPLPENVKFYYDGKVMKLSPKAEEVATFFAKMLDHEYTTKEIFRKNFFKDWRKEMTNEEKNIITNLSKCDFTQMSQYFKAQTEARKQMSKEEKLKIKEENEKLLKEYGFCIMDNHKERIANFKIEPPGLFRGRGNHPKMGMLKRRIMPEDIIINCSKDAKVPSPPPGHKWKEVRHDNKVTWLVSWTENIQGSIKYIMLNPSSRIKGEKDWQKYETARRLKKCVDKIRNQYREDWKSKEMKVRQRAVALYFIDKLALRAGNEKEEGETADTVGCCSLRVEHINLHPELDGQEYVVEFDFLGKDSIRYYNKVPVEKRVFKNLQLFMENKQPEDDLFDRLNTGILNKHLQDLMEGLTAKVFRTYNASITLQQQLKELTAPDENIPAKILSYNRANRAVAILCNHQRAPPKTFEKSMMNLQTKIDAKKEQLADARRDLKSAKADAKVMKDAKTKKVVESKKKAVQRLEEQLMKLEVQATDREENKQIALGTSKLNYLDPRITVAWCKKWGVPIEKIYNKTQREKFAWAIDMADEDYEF
The experiment is described as follows: Inhibition of topoisomerase-1 (unknown origin) using pBR 322 DNA as substrate.

Experiment [7] is described as follows: Inhibition of human Jurkat cell membrane-derived protein tyrosine phosphatase using o-phospho-L-tyrosine as substrate incubated for 15 mins by malachite green staining based assay.
Experiment [8] concerns the target T2, Tyrosyl-DNA phosphodiesterase 1. The experiment is described as follows: Inhibition of recombinant TDP1 (unknown origin) using 5'-32P-labeled N14Y DNA substrate incubated for 20 mins by PAGE analysis.
Experiment [9] has as its target T1, Tyrosyl-DNA phosphodiesterase 2. The experiment is described as follows: Inhibition of human N-terminal His-tagged TDP2 expressed in Escherichia coli JM109(DE3) using 5'-Y-TCCGTTGAAGCCTGCTTT-3' as substrate incubated for 60 mins by microplate reader analysis.
Experiment [10] addresses T2, Tyrosyl-DNA phosphodiesterase 1. The experiment in a line: Inhibition of TDP1 (unknown origin) using 14-mer duplex oligonucleotide [32P]-D14Y as substrate incubated for 20 mins by PAGE analysis.

The term IC50 denotes the concentration that inhibits the measured activity by half. With `NC1=CC(N)=C2C=CC(=O)N=C2C1=O`, inhibition in experiment [1] was half-maximal at 2 µM (IC50).

With `O=C(O)c1ccc(-c2ccc(/C=C3/NC(=O)N(Cc4ccccc4F)C3=O)o2)cc1`, the IC50 in [2] was found to be 7.7 µM; in [3], 32 µM.

As to `C=C(NC(=O)C(=C)NC(=O)c1csc(C2=N[C@@H]3c4csc(n4)[C@H]4NC(=O)c5csc(n5)[C@H]([C@](C)(O)[C@@H](C)O)NC(=O)[C@H]5CSC(=N5)/C(=C/C)NC(=O)[C@H]([C@@H](C)O)NC(=O)c5csc(n5)[C@]3(CC2)NC(=O)[C@H](C)NC(=O)C(=C)NC(=O)[C@H](C)NC(=O)[C@H]([C@@H](C)CC)N[C@@H]2C=Cc3c([C@H](C)O)cc(nc3[C@H]2O)C(=O)O[C@@H]4C)n1)C(N)=O` [THIOSTREPTON], in experiment [4], 1800 µM corresponded to half-maximal inhibition (IC50).

What is called Ki is a dissociation constant, usually derived from enzyme kinetics or from competition with a known ligand. `NCC1O[C@H](O[C@H]2[C@@H](O)[C@H](O[C@@H]3[C@@H](O)[C@H](N)C[C@H](N)[C@H]3O[C@H]3O[C@H](CN)[C@@H](O)[C@H](O)[C@H]3N)O[C@@H]2CO)[C@H](N)[C@@H](O)[C@@H]1O` (some centres undefined): the Ki in experiment [5] came to 8700 µM.

Turning to `O=C1NC(=S)NC(=O)C1=Cc1ccco1`, the IC50 in experiment [6] was 0.71 µM. Besides, in the experiment on MCF7, the inhibition of growth at 10 µM is 25%.

Broadly, the EC50 is the midpoint of the concentration-response curve. The low end stands for an effect from little substance, the high end for a need for much substance. On to `O=C1c2c(c3c4cccc(O)c4n([C@@H]4O[C@H](CO)[C@@H](O)[C@H](O)[C@H]4O)c3c3[nH]c4c(O)cccc4c23)C(=O)N1NC(CO)CO`, for which, on DNA topoisomerase 1, the EC50 worked out at 0.58 µM.

In experiment [7], `CN(N=O)c1cc(O)ccc1O` [DEPHOSTATIN] showed an IC50 of 7.7 µM.

`COc1ccc2c(c1)Oc1nc(-c3ccc(C)cc3)nc(SCC(=O)Nc3ccc(C(=O)O)cc3)c1C2`: the IC50 in experiment [2] came to 12.1 µM.

With `Cc1ccc(C(=O)Nc2ccc(S(=O)(=O)O)c3cc(S(=O)(=O)O)cc(S(=O)(=O)O)c23)cc1NC(=O)c1cccc(NC(=O)Nc2cccc(C(=O)Nc3cc(C(=O)Nc4ccc(S(=O)(=O)O)c5cc(S(=O)(=O)O)cc(S(=O)(=O)O)c45)ccc3C)c2)c1` [SURAMIN], the IC50 in experiment [8] is 5 µM. In addition, a half-maximal response in [9] (EC50) required 24 µM.

In experiment [4], `COc1ccc(C[C@H](N)C(=O)N[C@H]2[C@@H](O)[C@H](n3cnc4c(N(C)C)ncnc43)O[C@@H]2CO)cc1` [PUROMYCIN] displayed an IC50 of 18000 µM.

For the molecule `NC[C@@H]1O[C@H](O[C@H]2[C@@H](O)[C@H](O[C@@H]3[C@@H](O)[C@H](N)C[C@H](N)[C@H]3O[C@H]3O[C@H](CO)[C@@H](O)C[C@H]3N)O[C@@H]2CO)[C@H](N)[C@@H](O)[C@@H]1O[C@H]1O[C@H](CO)[C@@H](O)[C@H](O)[C@@H]1O` [LIVIDOMYCIN], in [10], the IC50 was 30000 µM.

The molecule `CCN[C@@H]1C[C@H](N)[C@@H](O[C@H]2OC(CN)=CC[C@H]2N)[C@H](O)[C@H]1O[C@H]1OC[C@](C)(O)[C@H](NC)[C@H]1O` [NETILMICIN] displayed an IC50 in [10] of 8000 µM.

With `CCn1cc(C(=O)O)c(=O)c2cc(F)c(N3CCN(CNc4ccc(S(=O)(=O)Nc5nc(C)cc(C)n5)cc4)CC3)cc21`, the IC50 in [2] came out at 0.005 µM.

In turn, `Cc1cc2nc3c(=O)[nH]c(=O)nc-3n(C)c2cc1C=O` yielded an EC50 in [9] of 3.5 µM.

For the molecule `CCC[C@@H]1C[C@@H](C(=O)N[C@@H]([C@H]2O[C@H](SC)[C@H](OP(=O)(O)O)[C@@H](O)[C@H]2O)[C@H](C)Cl)N(C)C1` [CLINDAMYCIN PHOSPHATE], in [4], inhibition was half-maximal at 9100 µM (IC50).

Consider `COc1c(N2CCN(CNc3ccc(S(=O)(=O)Nc4nc(C)cc(C)n4)cc3)C(C)C2)c(F)cc2c(=O)c(C(=O)O)cn(C3CC3)c12` (centres undefined), for which the IC50 in [2] turned out to be 0.022 µM.
